{"source": "patent US8574563B2", "about": "(Bristol-Myers Squibb Company, priority 2006, dated 2013)", "data": [{"tested_on": "HCV 1b-377-neo replicon cells", "assay": "HCV replicon assay, HCV 1b-377-neo replicon cells (1b FRET)", "type": "cell-based, Hepatitis C virus genotype 1b", "conditions": "Hepatitis C virus, HCV 1b-377-neo replicon cells; HCV 1b genotype; read-out: EC50 range against HCV 1b (Table 2, Range)", "summary_of_the_method": "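Compounds tested in HCV genotype 1b-377-neo replicon cells with a FRET read-out. Cells resistant to a reference NS5A inhibitor through a Y2065H NS5A mutation were run alongside wild-type cells.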", "units": {"EC50": "nM"}, "values": [{"smiles": "CC(=O)N[C@H](C(=O)N1[C@@H]2C[C@@H]2C[C@H]1c1ncc(-c2ccc(-c3ccc(-c4cnc([C@@H]5C[C@H]6C[C@H]6N5C(=O)[C@@H](NC(C)=O)C(C)C)[nH]4)cc3)cc2)[nH]1)C(C)C", "note": "[Example M140, N-((1S)-1-(((1R,3S,5R)-3-(4-(4′-(2-((1R,3S,5R)-2-((2S)-2-acetamido-3-methylbutanoyl)-2-azabicyclo[3.1.0]hex-3-yl)-1H-imidazol-4-yl)-4-biphenylyl)-1H-imidazol-2-yl)-2-azabicyclo[3.1.0]hex-2-yl)carbonyl)-2-methylpropyl)acetamide]", "EC50": "0.001 to 0.999"}, {"smiles": "CN(C)[C@@H](C(=O)N1CCC[C@H]1c1ncc(-c2ccc(-c3ncc(-c4cnc([C@@H]5CCCN5C(=O)[C@@H](c5ccccc5)N(C)C)[nH]4)cn3)cc2)[nH]1)c1ccccc1", "note": "[Example 152j-1, (1R)-2-((2S)-2-(5-(2-(4-(2-((2S)-1-((2R)-2-(dimethylamino)-2-phenylacetyl)-2-pyrrolidinyl)-1H-imidazol-5-yl)phenyl)-5-pyrimidinyl)-1H-imidazol-2-yl)-1-pyrrolidinyl)-N,N-dimethyl-2-oxo-1-phenylethanamine]", "EC50": "1 to 99"}, {"smiles": "COC(=O)N[C@@H](C(=O)N1CCC[C@H]1c1ncc(-c2ccc(-c3ccc(-c4cnc([C@@H]5CCCN5C(=O)COc5ccccc5OC)[nH]4)cc3)cc2)[nH]1)c1ccccc1", "note": "[Example 84-26, methyl ((1R)-2-((2S)-2-(5-(4′-(2-((2S)-1-((2-methoxyphenoxy)acetyl)-2-pyrrolidinyl)-1H-imidazol-5-yl)-4-biphenylyl)-1H-imidazol-2-yl)-1-pyrrolidinyl)-2-oxo-1-phenylethyl)carbamate]", "EC50": "0.001 to 0.999"}, {"smiles": "COC(=O)N[C@@H](C(=O)N1CCC[C@H]1c1ncc(-c2cnc(-c3ccc(-c4[nH]c([C@@H]5CCCN5C(=O)[C@H](NC(=O)OC)c5ccccc5)nc4C(F)(F)F)cc3)nc2)[nH]1)c1ccccc1", "note": "[Example J46, methyl ((1R)-2-((2S)-2-(5-(4-(5-(2-((2S)-1-((2R)-2-((methoxycarbonyl)amino)-2-phenylacetyl)-2-pyrrolidinyl)-1H-imidazol-5-yl)-2-pyrimidinyl)phenyl)-4-(trifluoromethyl)-1H-imidazol-2-yl)-1-pyrrolidinyl)-2-oxo-1-phenylethyl)carbamate]", "EC50": "0.001 to 0.999"}, {"smiles": "COC(=O)N[C@H](C(=O)N1CCC[C@H]1c1nc(-c2ccc(-c3ccc(-c4cnc([C@@H]5CCCN5C(=O)[C@H](NC(=O)OC)c5ccccc5)[nH]4)c(F)c3)cc2F)c[nH]1)C1CC1", "note": "[Example D66, methyl ((1S)-1-cyclopropyl-2-((2S)-2-(5-(3,3′-difluoro-4′-(2-((2S)-1-((2R)-2-((methoxycarbonyl)amino)-2-phenylacetyl)-2-pyrrolidinyl)-1H-imidazol-5-yl)-4-biphenylyl)-1H-imidazol-2-yl)-1-pyrrolidinyl)-2-oxoethyl)carbamate]", "EC50": "0.001 to 0.999"}, {"smiles": "CCN(CC)[C@@H](C(=O)N1CCC[C@H]1c1ncc(-c2ccc(-c3ccc(-c4cnc([C@@H]5CCCN5C(=O)[C@@H](NC(=O)OC)C(C)C)[nH]4)cc3)cc2)[nH]1)c1ccccc1", "note": "[Example M58, methyl ((1S)-1-(((2S)-2-(5-(4′-(2-((2S)-1-((2R)-2-(diethylamino)-2-phenylacetyl)-2-pyrrolidinyl)-1H-imidazol-5-yl)-4-biphenylyl)-1H-imidazol-2-yl)-1-pyrrolidinyl)carbonyl)-2-methylpropyl)carbamate]", "EC50": "1 to 99"}, {"smiles": "COC(=O)N[C@H](C(=O)N1CCC[C@H]1c1nc(-c2cnc(-c3ccc(-c4cnc([C@@H]5CCCN5C(=O)[C@@H](NC(=O)OC)C(C)C)[nH]4)c(F)c3)nc2)c[nH]1)C(C)C", "note": "[Example D68, methyl ((1S)-1-(((2S)-2-(5-(2-fluoro-4-(5-(2-((2S)-1-((2S)-((methoxycarbonyl)amino)-3-methylbutanoyl)-2-pyrrolidinyl)-1H-imidazol-5-yl)-2-pyrimidinyl)phenyl)-1H-imidazol-2-yl)-1-pyrrolidinyl)carbonyl)-2-methylpropyl) carbamate]", "EC50": "0.001 to 0.999"}, {"smiles": "O=C(N[C@@H](C(=O)N1CCC[C@H]1c1ncc(-c2ccc(-c3ccc(-c4cnc([C@@H]5CCCN5C(=O)[C@@H]5CCCO5)[nH]4)cc3)cc2)[nH]1)c1ccccc1)[C@@H]1CCCO1", "note": "[Example 112, (2S)-N-((1R)-2-oxo-1-phenyl-2-((2S)-2-(5-(4′-(2-((2S)-1((2S)-tetrahydro-2-furanylcarbonyl)-2-pyrrolidinyl)-1H-imidazol-5-yl)-4-biphenylyl)-1H-imidazol-2-yl)-1-pyrrolidinyl)ethyl) tetrahydro-2-furancarboxamide]", "EC50": "0.001 to 0.999"}, {"smiles": "COC(=O)N[C@@H](C)C(=O)N1CCC[C@H]1c1ncc(-c2ccc(-c3ccc(-c4cnc([C@@H]5CCCN5C(=O)[C@@H]5CCC[C@H]5NC(=O)OC)[nH]4)cc3)cc2)[nH]1", "note": "[cj-108, methyl ((1R,2R)-2-(((2S)-2-(5-(4′-(2-((2S)-1-(N-(methoxycarbonyl)-L-alanyl)-2-pyrrolidinyl)-1H-imidazol-5-yl)-4-biphenylyl)-1H-imidazol-2-yl)-1-pyrrolidinyl)carbonyl)cyclopentyl)carbamate]", "EC50": "0.001 to 0.999"}, {"smiles": "COC(=O)N[C@H](C(=O)N1[C@@H]2C[C@@H]2C[C@H]1c1nc(-c2ccc(-c3ccc(-c4c[nH]c([C@@H]5C[C@H]6C[C@H]6N5C(=O)[C@@H](NC(=O)OC)C5CC5)n4)cc3)cc2)c[nH]1)C1CC1", "note": "[Example M135, dimethyl (4,4′-biphenyl-diylbis(1H-imidazole-4,2-diyl(1R,3S,5R)-2-azabicyclo[3.1.0]hexane-3,2-diyl((1S)-1-cyclopropyl-2-oxo-2,1-ethanediyl)))biscarbamate]", "EC50": "0.001 to 0.999"}, {"smiles": "O=C([C@@H](c1ccccc1)N1CCOCC1)N1CCC[C@H]1c1ncc(-c2ccc(-c3ccc(-c4cnc([C@@H]5CCCN5C(=O)[C@@H](c5ccccc5)N5CCOCC5)[nH]4)cc3)cc2)[nH]1", "note": "[Example 18, 4,4′-(4,4′-biphenyldiylbis(1H-imidazole-5,2-diyl(2S)-2,1-pyrrolidinediyl((1R)-2-oxo-1-phenyl-2,1-ethanediyl)))dimorpholine]", "EC50": "0.001 to 0.999"}, {"smiles": "COC(=O)N[C@H](C(=O)N1CCC[C@H]1c1ncc(-c2ccc(-c3ccc(-c4cnc([C@@H]5CCCN5C(=O)[C@@H](Nc5cccnc5)C(C)C)[nH]4)cc3)cc2)[nH]1)[C@@H](C)OC", "note": "[cj-20b, methyl ((1S,2R)-2-methoxy-1-(((2S)-2-(5-(4′-(2-((2S)-1-(N-3-pyridinyl-L-valyl)-2-pyrrolidinyl)-1H-imidazol-5-yl)-4-biphenylyl)-1H-imidazol-2-yl)-1-pyrrolidinyl)carbonyl)propyl)carbamate]", "EC50": "0.001 to 0.999"}, {"smiles": "COC(=O)N[C@@H](C(=O)N1CCC[C@H]1c1ncc(-c2ccc(-c3ccc(-c4cnc([C@@H]5CCCN5C(=O)[C@@H](c5ccccc5)N5CCCCC5)[nH]4)cc3)cc2)[nH]1)c1ccccc1Cl", "note": "[Example 28-3, methyl ((1R)-1-(2-chlorophenyl)-2-oxo-2-((2S)-2-(5-(4′-(2-((2S)-1-((2R)-2-phenyl-2-(1-piperidinyl)acetyl)-2-pyrrolidinyl)-1H-imidazol-5-yl)-4-biphenylyl)-1H-imidazol-2-yl)-1-pyrrolidinyl)ethyl)carbamate]", "EC50": "0.001 to 0.999"}, {"smiles": "COC(=O)N[C@H](C(=O)N1CCC[C@H]1c1ncc(-c2ccc(-c3ccc(-c4c[nH]c([C@@H]5CCCN5C(=O)[C@@H](NC(=O)OC)C5CC5)n4)c(F)c3)cc2F)[nH]1)C(C)C", "note": "[Example D55, methyl ((1S)-1-cyclopropyl-2-((2S)-2-(5-(3,3,-difluoro-4′-(2-((2S)-1-(N-(methoxycarbonyl)-L-valyl)-2-pyrrolidinyl)-1H-imidazol-5-yl)-4-biphenylyl)-1H-imidazol-2-yl)-1-pyrrolidinyl)-2-oxoethyl)carbamate]", "EC50": "0.001 to 0.999"}, {"smiles": "COC(=O)N[C@H](Cc1ccccc1)C(=O)N1CCC[C@H]1c1ncc(-c2ccc(-c3ccc(-c4cnc([C@@H]5CCCN5C(=O)[C@@H](Cc5ccccc5)NC(=O)OC)[nH]4)cc3)cc2)[nH]1", "note": "[cj-145, methyl ((1R)-1-benzyl-2-((2S)-2-(5-(4′-(2-((2S)-1-((2R)-2-((methoxycarbonyl)amino)-3-phenylpropanoyl)-2-pyrrolidinyl)-1H-imidazol-5-yl)-4-biphenylyl)-1H-imidazol-2-yl)-1-pyrrolidinyl)-2-oxoethyl)carbamate]", "EC50": "1 to 99"}, {"smiles": "CCN(CC)[C@@H](C(=O)N1CCC[C@H]1c1ncc(-c2ccc(-c3ccc(-c4cnc([C@@H]5CCCN5C(=O)[C@@H](Nc5ncccn5)C(C)C)[nH]4)cc3)cc2)[nH]1)c1ccccc1", "note": "[cj-11c, N-((1S)-1-(((2S)-2-(5-(4′-(2-((2S)-1-((2R)-2-(diethylamino)-2-phenylacetyl)-2-pyrrolidinyl)-1H-imidazol-5-yl)-4-biphenylyl)-1H-imidazol-2-yl)-1-pyrrolidinyl)carbonyl)-2-methylpropyl)-2-pyrimidinamine]", "EC50": "0.001 to 0.999"}, {"smiles": "CC(=O)NCCC(=O)N1CCC[C@H]1c1ncc(-c2ccc(-c3ccc(-c4cnc([C@@H]5CCCN5C(=O)CCNC(C)=O)[nH]4)cc3)cc2)[nH]1", "note": "[cj-134, N-(3-((2S)-2-(5-(4′-(2-((2S)-1-(3-acetamidopropanoyl)-2-pyrrolidinyl)-1H-imidazol-5-yl)-4-biphenylyl)-1H-imidazol-2-yl)-1-pyrrolidinyl)-3-oxopropyl)acetamide]", "EC50": "1 to 99"}, {"smiles": "COC(=O)N[C@@H](C(=O)N1CCC[C@H]1c1ncc(-c2ccc(-c3ccc(-c4cnc([C@@H]5CCCN5C(=O)C(c5ccsc5)N(C)C)[nH]4)cc3)cc2)[nH]1)c1ccccc1", "note": "(stereo partly drawn) [Example 84-47, methyl ((1R)-2-((2S)-2-(5-(4′-(2-((2S)-1-((dimethylamino)(3-thienyl)acetyl)-2-pyrrolidinyl)-1H-imidazol-5-yl)-4-biphenylyl)-1H-imidazol-2-yl)-1-pyrrolidinyl)-2-oxo-1-phenylethyl)carbamate]", "EC50": "0.001 to 0.999"}, {"smiles": "CCOC(=O)N[C@H](C)C(=O)N1CCC[C@H]1c1ncc(-c2ccc(-c3ccc(-c4cnc([C@@H]5CCCN5C(=O)[C@@H](C)NC(=O)OCC)[nH]4)cc3)cc2)[nH]1", "note": "[Example M4, ethyl ((1R)-2-((2S)-2-(5-(4′-(2-((2S)-1-(N-(ethoxycarbonyl)-D-alanyl)-2-pyrrolidinyl)-1H-imidazol-5-yl)-4-biphenylyl)-1H-imidazol-2-yl)-1-pyrrolidinyl)-1-methyl-2-oxoethyl)carbamate]", "EC50": "100 to 999"}]}]}
